Consider 3 compounds from ChEMBL document CHEMBL5653615 (J Biol Chem, 2013).

SMILES strings stand for the structures.

Usually inhibition stands for the relative decrease from the control value, in per cent.

The target of experiment [1] is Serine/threonine-protein kinase 26 (Homo sapiens) (UniProt Q9P289). In words: Inhibition of human MST4 at 18.6 nM by HotSpot assay relative to control.
Experiment [2] deals with Calcium/calmodulin-dependent protein kinase type II subunit delta (Homo sapiens) (UniProt Q13557). As to the kind of experiment: Inhibition of human CAMK2d at 18.6 nM by HotSpot assay relative to control.
Experiment [3] deals with Calcium/calmodulin-dependent protein kinase kinase 2 (Homo sapiens) (UniProt Q96RR4). In words: Inhibition of human CAMKK2 at 18.6 nM by HotSpot assay relative to control.
Experiment [4] has as its target Serine/threonine-protein kinase N1 (Homo sapiens) (UniProt Q16512). In words: Inhibition of human PRK1 at 18.6 nM by HotSpot assay relative to control.
Experiment [5] concerns the target Fibroblast growth factor receptor 2 (Homo sapiens) (UniProt P21802). In words: Inhibition of human FGFR2 at 18.6 nM by HotSpot assay relative to control.
For experiment [6], the target named is CDK9/cyclin T1 (Homo sapiens) (UniProt O60563+P50750). In words: Inhibition of human CDK9/cyclin T1 at 18.6 nM by HotSpot assay relative to control. The class given is protein-complex assay.
Experiment [7] deals with Tyrosine-protein kinase BTK (Homo sapiens) (UniProt Q06187). In words: Inhibition of human BTK at 18.6 nM by HotSpot assay relative to control.
Experiment [8] concerns the target ALK tyrosine kinase receptor (Homo sapiens) (UniProt Q9UM73). As to the kind of experiment: Inhibition of human ALK at 500 nM by HotSpot assay relative to control.
Experiment [9] concerns the target Misshapen-like kinase 1 (Homo sapiens) (UniProt Q8N4C8). As to the kind of experiment: Inhibition of human MINK1 at 1.82 nM by HotSpot assay relative to control.
Experiment [10] concerns the target Ribosomal protein S6 kinase alpha-3 (Homo sapiens) (UniProt P51812). In words: Inhibition of human RSK2 at 1.82 nM by HotSpot assay relative to control.
In experiment [11] the target is Serine/threonine-protein kinase Nek4 (Homo sapiens) (UniProt P51957). As to the kind of experiment: Inhibition of human NEK4 at 1.82 nM by HotSpot assay relative to control.
Experiment [12] has as its target Protein kinase C beta type (Homo sapiens) (UniProt P05771). As to the kind of experiment: Inhibition of human PKCb2 at 1.82 nM by HotSpot assay relative to control.
The target of experiment [13] is T1, NUAK family SNF1-like kinase 2 (Homo sapiens) (UniProt Q9H093).
T1 sequence (whole entry): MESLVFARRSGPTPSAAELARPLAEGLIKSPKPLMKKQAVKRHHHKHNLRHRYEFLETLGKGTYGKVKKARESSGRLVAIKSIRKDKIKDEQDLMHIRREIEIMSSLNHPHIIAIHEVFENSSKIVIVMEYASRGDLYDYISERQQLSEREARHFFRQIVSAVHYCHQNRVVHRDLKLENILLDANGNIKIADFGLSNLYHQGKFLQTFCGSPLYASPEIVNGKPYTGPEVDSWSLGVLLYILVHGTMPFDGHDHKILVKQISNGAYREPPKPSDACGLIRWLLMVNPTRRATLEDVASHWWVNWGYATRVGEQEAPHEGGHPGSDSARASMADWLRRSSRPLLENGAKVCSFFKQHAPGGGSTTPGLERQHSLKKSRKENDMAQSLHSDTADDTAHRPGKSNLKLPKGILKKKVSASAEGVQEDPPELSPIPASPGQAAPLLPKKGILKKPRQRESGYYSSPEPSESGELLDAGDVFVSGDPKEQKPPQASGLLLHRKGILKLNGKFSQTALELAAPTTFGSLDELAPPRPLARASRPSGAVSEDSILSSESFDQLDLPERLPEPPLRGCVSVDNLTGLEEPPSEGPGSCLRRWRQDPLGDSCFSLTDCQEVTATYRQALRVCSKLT
As to the kind of experiment: Inhibition of human NUAK2 at 1.82 nM by HotSpot assay relative to control.

Experiment [14] has as its target Serine/threonine-protein kinase B-raf (Homo sapiens) (UniProt P15056). As to the kind of experiment: Inhibition of human BRAF at 1.82 nM by HotSpot assay relative to control.
For experiment [15], the target named is Macrophage-stimulating protein receptor (Homo sapiens) (UniProt Q04912). As to the kind of experiment: Inhibition of human MST1R at 1.82 nM by HotSpot assay relative to control.
For experiment [16], the target named is T2, Serine/threonine-protein kinase Nek3 (Homo sapiens) (UniProt P51956).
T2 sequence (whole entry): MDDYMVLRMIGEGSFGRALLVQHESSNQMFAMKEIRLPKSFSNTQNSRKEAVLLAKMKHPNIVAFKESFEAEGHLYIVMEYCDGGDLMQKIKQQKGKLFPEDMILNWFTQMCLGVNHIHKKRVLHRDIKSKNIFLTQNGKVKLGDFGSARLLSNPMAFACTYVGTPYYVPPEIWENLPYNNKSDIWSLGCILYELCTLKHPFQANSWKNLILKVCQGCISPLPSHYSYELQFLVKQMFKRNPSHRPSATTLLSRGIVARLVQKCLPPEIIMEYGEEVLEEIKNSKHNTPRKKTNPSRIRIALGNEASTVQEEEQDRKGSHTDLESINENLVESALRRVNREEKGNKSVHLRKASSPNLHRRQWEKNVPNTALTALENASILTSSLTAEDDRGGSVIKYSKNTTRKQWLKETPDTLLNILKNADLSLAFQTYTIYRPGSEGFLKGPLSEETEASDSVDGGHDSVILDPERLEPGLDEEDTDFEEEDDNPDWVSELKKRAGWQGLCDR
As to the kind of experiment: Inhibition of human NEK3 at 1.82 nM by HotSpot assay relative to control.

For experiment [17], the target named is Serine/threonine-protein kinase PAK 5 (Homo sapiens) (UniProt Q9P286). In words: Inhibition of human PAK5 at 1.82 nM by HotSpot assay relative to control.
The target of experiment [18] is T3, Calcium/calmodulin-dependent protein kinase type IV (Homo sapiens) (UniProt Q16566).
T3 sequence (whole entry): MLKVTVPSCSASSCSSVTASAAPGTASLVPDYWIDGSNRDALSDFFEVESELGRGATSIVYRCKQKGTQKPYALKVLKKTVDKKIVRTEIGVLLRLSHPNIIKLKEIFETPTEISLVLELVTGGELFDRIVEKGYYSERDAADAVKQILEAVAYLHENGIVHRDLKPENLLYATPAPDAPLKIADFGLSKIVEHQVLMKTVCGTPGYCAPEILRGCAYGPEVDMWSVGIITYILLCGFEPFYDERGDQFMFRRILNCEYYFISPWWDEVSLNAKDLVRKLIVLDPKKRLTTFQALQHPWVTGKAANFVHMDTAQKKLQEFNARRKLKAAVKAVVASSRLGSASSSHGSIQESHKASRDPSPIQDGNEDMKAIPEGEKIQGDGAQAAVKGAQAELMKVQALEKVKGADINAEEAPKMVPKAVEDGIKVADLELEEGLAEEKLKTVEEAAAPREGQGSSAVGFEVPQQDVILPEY
As to the kind of experiment: Inhibition of human CAMK4 at 1.82 nM by HotSpot assay relative to control.

In experiment [19] the target is Vascular endothelial growth factor receptor 3 (Homo sapiens) (UniProt P35916). In words: Inhibition of human FLT4 at 1.82 nM by HotSpot assay relative to control.

Sequence of Serine/threonine-protein kinase PAK 5 (Homo sapiens) (Q9P286 whole entry, looked up): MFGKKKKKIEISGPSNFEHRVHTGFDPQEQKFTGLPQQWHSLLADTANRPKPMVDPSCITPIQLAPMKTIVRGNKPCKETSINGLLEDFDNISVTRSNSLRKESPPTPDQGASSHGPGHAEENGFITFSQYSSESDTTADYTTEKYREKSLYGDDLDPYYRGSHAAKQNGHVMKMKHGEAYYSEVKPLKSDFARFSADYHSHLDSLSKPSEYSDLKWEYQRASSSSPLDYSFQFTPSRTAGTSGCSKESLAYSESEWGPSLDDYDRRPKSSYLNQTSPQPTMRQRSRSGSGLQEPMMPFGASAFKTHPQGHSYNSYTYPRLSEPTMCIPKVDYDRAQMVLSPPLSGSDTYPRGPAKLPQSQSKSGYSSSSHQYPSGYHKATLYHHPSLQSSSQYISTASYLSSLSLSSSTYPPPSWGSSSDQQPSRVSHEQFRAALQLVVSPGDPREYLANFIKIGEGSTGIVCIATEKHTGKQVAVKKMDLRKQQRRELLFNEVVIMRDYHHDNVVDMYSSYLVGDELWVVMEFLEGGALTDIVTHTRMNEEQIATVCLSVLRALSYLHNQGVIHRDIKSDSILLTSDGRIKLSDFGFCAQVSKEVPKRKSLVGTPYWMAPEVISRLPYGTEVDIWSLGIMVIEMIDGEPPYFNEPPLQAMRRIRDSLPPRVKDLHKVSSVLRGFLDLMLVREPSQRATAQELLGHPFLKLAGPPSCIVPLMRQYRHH
Sequence of Serine/threonine-protein kinase 26 (Homo sapiens) (Q9P289 2-416 limits assumed): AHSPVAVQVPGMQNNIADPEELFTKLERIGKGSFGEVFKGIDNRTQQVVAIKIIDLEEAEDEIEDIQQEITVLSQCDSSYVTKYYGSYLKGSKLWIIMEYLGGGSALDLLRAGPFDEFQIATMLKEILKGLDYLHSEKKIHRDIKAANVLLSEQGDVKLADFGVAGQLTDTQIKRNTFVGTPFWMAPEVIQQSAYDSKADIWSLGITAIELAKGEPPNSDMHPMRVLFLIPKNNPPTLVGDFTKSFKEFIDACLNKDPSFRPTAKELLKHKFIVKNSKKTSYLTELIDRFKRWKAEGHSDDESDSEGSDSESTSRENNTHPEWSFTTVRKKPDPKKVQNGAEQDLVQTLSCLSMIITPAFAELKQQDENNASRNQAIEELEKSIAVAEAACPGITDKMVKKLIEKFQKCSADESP
Sequence of Serine/threonine-protein kinase N1 (Homo sapiens) (Q16512 2-942 limits assumed): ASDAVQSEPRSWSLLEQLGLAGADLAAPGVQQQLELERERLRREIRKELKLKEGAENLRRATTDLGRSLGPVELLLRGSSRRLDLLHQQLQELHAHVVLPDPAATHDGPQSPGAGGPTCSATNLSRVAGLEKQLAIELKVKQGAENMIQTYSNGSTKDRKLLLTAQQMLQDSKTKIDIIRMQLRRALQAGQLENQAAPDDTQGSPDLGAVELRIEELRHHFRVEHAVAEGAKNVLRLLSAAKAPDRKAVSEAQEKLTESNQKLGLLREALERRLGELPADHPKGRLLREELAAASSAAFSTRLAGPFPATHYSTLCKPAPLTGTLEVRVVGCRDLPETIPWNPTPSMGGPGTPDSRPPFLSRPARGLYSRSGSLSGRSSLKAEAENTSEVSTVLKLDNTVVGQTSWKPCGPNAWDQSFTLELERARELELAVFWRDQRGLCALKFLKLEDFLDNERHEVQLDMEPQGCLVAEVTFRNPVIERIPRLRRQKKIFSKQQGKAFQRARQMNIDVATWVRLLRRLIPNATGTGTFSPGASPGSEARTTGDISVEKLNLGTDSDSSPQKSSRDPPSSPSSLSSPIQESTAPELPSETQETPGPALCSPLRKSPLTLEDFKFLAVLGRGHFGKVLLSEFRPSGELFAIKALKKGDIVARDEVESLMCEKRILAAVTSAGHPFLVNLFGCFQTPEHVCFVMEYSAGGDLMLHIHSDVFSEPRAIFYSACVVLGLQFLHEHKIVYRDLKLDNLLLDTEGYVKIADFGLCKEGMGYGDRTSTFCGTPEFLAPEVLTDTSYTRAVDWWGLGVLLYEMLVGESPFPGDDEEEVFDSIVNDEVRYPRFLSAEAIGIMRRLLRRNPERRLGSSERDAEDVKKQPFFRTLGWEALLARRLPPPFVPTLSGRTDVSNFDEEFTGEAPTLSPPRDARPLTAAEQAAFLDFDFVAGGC
Sequence of Macrophage-stimulating protein receptor (Homo sapiens) (Q04912 25-304 limits assumed): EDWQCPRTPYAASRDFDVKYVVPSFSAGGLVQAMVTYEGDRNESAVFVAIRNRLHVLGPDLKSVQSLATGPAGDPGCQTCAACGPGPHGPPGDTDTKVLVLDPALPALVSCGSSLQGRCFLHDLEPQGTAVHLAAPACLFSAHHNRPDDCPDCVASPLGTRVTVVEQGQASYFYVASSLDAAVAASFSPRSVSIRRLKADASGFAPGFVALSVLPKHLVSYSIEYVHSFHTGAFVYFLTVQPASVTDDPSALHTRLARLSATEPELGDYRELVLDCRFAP
Sequence of Macrophage-stimulating protein receptor (Homo sapiens) (Q04912 310-1400 limits assumed): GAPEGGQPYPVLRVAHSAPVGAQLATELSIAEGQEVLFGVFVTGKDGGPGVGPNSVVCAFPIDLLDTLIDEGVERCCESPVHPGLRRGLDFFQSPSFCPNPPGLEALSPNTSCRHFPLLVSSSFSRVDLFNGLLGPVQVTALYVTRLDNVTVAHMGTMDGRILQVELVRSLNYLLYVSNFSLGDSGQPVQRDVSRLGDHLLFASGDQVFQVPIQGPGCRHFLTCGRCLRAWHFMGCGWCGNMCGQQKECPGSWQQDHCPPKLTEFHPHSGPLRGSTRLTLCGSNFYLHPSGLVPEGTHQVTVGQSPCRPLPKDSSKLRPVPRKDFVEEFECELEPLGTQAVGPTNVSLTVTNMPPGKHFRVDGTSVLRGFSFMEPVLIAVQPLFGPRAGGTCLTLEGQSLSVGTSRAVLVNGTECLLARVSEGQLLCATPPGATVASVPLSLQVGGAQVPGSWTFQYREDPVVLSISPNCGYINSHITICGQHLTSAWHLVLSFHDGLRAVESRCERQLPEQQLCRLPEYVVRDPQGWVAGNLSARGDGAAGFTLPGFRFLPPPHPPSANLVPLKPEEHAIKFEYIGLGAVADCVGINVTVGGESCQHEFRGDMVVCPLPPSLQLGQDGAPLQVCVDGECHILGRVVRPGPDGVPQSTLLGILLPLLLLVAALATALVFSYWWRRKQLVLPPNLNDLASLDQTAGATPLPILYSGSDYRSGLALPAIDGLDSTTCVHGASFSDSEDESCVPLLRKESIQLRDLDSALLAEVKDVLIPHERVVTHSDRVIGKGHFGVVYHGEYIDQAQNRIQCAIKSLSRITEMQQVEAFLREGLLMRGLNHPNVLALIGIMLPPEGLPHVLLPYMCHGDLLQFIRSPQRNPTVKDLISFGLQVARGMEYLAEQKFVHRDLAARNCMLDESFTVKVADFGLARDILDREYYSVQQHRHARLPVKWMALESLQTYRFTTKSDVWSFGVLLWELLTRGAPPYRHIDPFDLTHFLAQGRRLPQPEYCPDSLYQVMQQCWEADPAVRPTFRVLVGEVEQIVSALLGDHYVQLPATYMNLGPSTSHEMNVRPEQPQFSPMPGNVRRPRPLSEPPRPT
Sequence of Protein kinase C beta type (Homo sapiens) (P05771 2-671 limits assumed): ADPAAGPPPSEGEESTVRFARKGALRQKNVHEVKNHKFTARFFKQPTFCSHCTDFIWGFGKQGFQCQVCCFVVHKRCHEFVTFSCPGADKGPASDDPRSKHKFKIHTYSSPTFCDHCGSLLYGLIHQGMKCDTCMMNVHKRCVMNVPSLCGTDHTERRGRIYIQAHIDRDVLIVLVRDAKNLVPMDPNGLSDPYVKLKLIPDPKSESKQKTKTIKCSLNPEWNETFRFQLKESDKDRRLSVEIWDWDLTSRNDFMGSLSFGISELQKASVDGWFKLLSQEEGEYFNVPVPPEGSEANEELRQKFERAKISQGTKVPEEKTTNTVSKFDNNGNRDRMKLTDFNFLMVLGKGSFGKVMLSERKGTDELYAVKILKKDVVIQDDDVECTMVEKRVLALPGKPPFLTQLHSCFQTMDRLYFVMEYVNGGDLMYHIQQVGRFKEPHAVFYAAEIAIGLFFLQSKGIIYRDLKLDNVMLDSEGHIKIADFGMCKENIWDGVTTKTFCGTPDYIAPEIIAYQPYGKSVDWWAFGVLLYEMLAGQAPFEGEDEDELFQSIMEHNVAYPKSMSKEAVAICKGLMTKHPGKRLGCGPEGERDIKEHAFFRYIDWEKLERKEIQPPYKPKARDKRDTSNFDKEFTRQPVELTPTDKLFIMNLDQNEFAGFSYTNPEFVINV
Sequence of Tyrosine-protein kinase BTK (Homo sapiens) (Q06187 whole entry): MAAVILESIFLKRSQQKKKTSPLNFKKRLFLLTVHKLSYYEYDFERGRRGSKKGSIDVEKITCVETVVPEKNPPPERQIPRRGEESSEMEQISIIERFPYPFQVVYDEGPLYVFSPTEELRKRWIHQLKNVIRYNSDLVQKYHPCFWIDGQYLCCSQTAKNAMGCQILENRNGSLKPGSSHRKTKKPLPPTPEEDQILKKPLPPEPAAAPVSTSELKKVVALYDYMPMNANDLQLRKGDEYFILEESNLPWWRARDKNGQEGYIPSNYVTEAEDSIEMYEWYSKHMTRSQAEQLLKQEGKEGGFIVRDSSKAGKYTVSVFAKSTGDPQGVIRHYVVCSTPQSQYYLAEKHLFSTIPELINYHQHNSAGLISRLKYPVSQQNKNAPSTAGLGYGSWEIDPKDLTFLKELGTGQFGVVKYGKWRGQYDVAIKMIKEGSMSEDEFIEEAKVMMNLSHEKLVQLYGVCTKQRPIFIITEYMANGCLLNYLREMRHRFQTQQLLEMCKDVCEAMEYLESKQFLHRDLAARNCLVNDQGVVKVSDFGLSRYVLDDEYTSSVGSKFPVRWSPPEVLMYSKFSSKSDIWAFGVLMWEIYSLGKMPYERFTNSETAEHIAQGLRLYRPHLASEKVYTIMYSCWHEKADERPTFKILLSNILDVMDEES

Turning to `C[C@]1(O)C[C@@H](c2nc(-c3ccc4ccc(-c5ccccc5)nc4c3)c3c(N)nccn32)C1`, the inhibition was -2.21% in experiment [1]; 0.37% in experiment [2]; 28% in experiment [3]; -7.69% in [4]; -3.25% in experiment [5]; 2.42% in [6]. The inhibition in experiment [7] was -1.94%.
Regarding `Nc1n[nH]c2nnc(-c3c(-c4ccccc4)nn4ccccc34)cc12`, in experiment [8], the inhibition is -7.89%.
As for `C[C@@]1(C(=O)Nc2ccc(F)nc2)CCCN1c1nc(Nc2cc(C3CC3)n[nH]2)c2cccn2n1`, the inhibition in experiment [9] is 0.36%; in experiment [10], 2.83%; in [11], -3.35%; in experiment [12], -3.58%; in experiment [13], 8.18%; in experiment [14], 7.49%. Moreover, the inhibition in experiment [15] was 0.1%; in [16] it was 1.63%; in experiment [17] it was -4.48%; in [18] it was 3.45%; in [19], -6.12%.
